Experimental data published in patent US12485123B2, “1H-pyrazolo[4,3-d]pyrimidine compounds as toll-like receptor 7 (TLR7) agonists” (BRISTOL-MYERS SQUIBB COMPANY, priority 2020, dated 2025).

Assays:
[1] = target: T1, human TLR7 (Homo sapiens, UniProt Q9NYK1); assay: Human TLR7 agonist activity reporter assay (HEK-Blue TLR7 cells, SEAP reporter); type: cell-based; conditions: human TLR7 (hTLR7) reporter assay, SEAP readout after 18 h, average where assay repeated, read-out: TLR7 Agonism EC50
T1 construct: host or cells: HEK-Blue TLR7 cells (engineered human embryonic kidney cells)
T1 sequence (Q9NYK1 27-1049): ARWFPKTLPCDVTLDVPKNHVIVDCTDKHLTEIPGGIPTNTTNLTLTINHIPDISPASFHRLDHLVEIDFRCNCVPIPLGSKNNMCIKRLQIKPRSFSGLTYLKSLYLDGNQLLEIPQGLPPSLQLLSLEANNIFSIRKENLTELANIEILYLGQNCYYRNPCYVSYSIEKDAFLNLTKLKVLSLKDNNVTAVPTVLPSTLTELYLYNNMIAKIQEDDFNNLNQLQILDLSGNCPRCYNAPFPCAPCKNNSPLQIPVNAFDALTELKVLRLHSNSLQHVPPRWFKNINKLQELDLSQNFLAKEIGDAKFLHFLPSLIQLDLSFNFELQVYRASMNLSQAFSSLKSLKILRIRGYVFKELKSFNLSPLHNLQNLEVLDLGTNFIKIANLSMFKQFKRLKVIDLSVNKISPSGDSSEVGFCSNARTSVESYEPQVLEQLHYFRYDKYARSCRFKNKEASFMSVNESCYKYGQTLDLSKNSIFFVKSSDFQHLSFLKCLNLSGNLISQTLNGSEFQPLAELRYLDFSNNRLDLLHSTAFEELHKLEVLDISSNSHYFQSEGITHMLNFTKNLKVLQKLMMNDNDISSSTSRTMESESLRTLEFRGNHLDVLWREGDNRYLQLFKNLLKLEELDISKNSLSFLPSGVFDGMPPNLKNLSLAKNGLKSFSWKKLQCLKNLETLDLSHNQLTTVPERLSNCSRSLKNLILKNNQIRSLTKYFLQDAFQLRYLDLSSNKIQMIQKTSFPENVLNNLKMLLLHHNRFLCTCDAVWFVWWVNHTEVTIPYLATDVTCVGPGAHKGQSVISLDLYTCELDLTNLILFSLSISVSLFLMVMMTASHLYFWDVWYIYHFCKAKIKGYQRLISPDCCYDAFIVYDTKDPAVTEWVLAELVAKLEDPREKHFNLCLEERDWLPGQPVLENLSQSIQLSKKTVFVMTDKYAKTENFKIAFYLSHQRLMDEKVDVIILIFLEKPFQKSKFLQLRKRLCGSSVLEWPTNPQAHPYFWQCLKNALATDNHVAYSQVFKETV
Protocol: Human TLR7 Agonist Activity Assay
This procedure describes a method for assaying human TLR7 (hTLR7) agonist activity of the compounds disclosed in this specification.
HEK-Blue™ TLR7 cells were added to each well of a 384-well tissue-culture plate (15,000 cells per well) and incubated 16-18 h at 37° C., 5% CO2. Compounds (100 nl) were dispensed into wells containing the HEK-Blue™ TLR cells and the treated cells were incubated at 37° C., 5% CO2. After 18 h treatment ten microliters of freshly-prepared Quanti-Blue™ reagent (Invivogen) was added to each well, incubated for 30 min (37° C., 5% CO2) and SEAP levels measured using an Envision plate reader (OD=620 nm).

[2] = system: CD69; assay: Induction of CD69 in human whole blood; type: cell-based; conditions: 17 hrs incubation, CD69 surface staining, 100% set to 1 uM of resiquimod, average where assay repeated, read-out: hWB CD69 EC50
Protocol: Induction of Type I Interferon Genes (MX-1) and CD69 in Human Blood
The induction of Type I interferon (IFN) MX-1 genes and the B-cell activation marker CD69 are downstream events that occur upon activation of the TLR7 pathway. The following is a human whole blood assay that measures their induction in response to a TLR7 agonist.
Heparinized human whole blood was harvested from human subjects and treated with test TLR7 agonist compounds at 1 mM. The blood was diluted with RPMI 1640 media and Echo was used to predot 10 nL per well giving a final concentration of 1 uM (10 nL in 10 uL of blood). After mixing on a shaker for 30 sec, the plates were covered and placed in a 37° C. chamber for o/n=17 hrs. Fixing/lysis buffer was prepared (5×→1× in H2O, warm at 37° C.; Cat #BD 558049) and kept the perm buffer (on ice) for later use.
For surface markers staining (CD69): prepared surface Abs: 0.045 ul hCD14-FITC (ThermoFisher Cat #MHCD1401)+0.6 ul hCD19-ef450 (ThermoFisher Cat #48-0198-42)+1.5 ul hCD69-PE (cat #BD555531)+0.855 ul FACS buffer. Added 3 ul/well, spin 1000 rpm for 1 min and mixed on shaker for 30 sec, put on ice for 30 min. Stop stimulation after 30 minutes with 70 uL of prewarmed 1× fix/lysis buffer and use Feliex mate to resuspend (15 times, change tips for each plate) and incubate at 37 C for 10 minutes.
Centrifuge at 2000 rpm for 5 minutes aspirate with HCS plate washer, mix on shaker for 30 sec and then wash with 70 uL in dPBS and pelleted 2×s (2000 rpm for 5 min) and 50 ul wash in FACS buffer pelleted 1×s (2000 rpm for 5 min). Mix on shaker for 30 sec. For Intracellular markers staining (MX-1): Add 50 ul of BD Perm buffer III and mix on shaker for 30 sec. Incubate on ice for 30 minutes (in the dark). Wash with 50 uL of FACS buffer 2× (spin @2300 rpm×5 min after perm) followed by mixing on shaker for 30 sec. Resuspended in 20 ul of FACS buffer containing MX1 antibody ( )(4812)-Alexa 647: Novus Biologicals #NBP2-43704AF647) 20 ul FACS bf+0.8 ul hIgG+0.04 ul MX-1. Spin 1000 rpm for 1 min, mix on shaker for 30 se and the samples were incubated at RT in the dark for 45 minutes followed by washing 2×FACS buffer (spin @2300 rpm×5 min after perm). Resuspend 20 ul (35 uL total per well) of FACS buffer and cover with foil and place in 4° C. to read the following day. Plates were read on iQuePlus. The results were loaded into toolset and […] curves are generated in curve master. The y-axis 100% is set to 1 uM of resiquimod.

Row | Compound | EC50 [1] [nM] | EC50 [2] [nM]
1 | CCC[C@@H](CCO)Nc1nc(N)nc2cnn(Cc3ccc(CN4CC5(CCOCC5)C4)c4cccnc34)c12 [Compound 106, (3S)-3-[(5-amino-1-{[5-({7-oxa-2-azaspiro[3.5]nonan-2-yl}methyl)quinolin-8-yl]methyl}-1H-pyrazolo[4,3-d]pyrimidin-7-yl)amino]hexan-1-ol] | 19.3 | 48.1
2 | Cc1cc(CNc2nc(N)nc3cnn(Cc4ccc(C(=O)NC5CCN(C)CC5)c5cccnc45)c23)no1 [Compound 122, 8-[(5-amino-7-{[(5-methyl-1,2-oxazol-3-yl)methyl]amino}-1H-pyrazolo[4,3-d]pyrimidin-1-yl)methyl]-N-(1-methylpiperidin-4-yl)quinoline-5-carboxamide] | 309 | 54
3 | CCC[C@@H](CCO)Nc1nc(N)nc2cnn(Cc3ccc(CN4CC(O)C4)c4cccnc34)c12 [Compound 105, 1-({8-[(5-amino-7-{[(3S)-1-hydroxyhexan-3-yl]amino}-1H-pyrazolo[4,3-d]pyrimidin-1-yl)methyl]quinolin-5-yl}methyl)azetidin-3-ol] | 49.4 | 13.8
4 | CCCCNc1nc(N)nc2cnn(Cc3ccc(CNC4CCC4)c4cccnc34)c12 [Compound 101, N7-butyl-1-({5-[(cyclobutylamino)methyl]quinolin-8-yl}methyl)-1H-pyrazolo[4,3-d]pyrimidine-5,7-diamine] | 93.3 | 47.1
5 | CCC[C@@H](CCO)Nc1nc(N)nc2cnn(Cc3ccc(C(=O)N4CC(CCOC)C4)c4cccnc34)c12 [Compound 128, (3S)-3-{[5-amino-1-({5-[3-(2-methoxyethyl)azetidine-1-carbonyl]quinolin-8-yl}methyl)-1H-pyrazolo[4,3-d]pyrimidin-7-yl]amino}hexan-1-ol] | 54.6 | 102
6 | CCC[C@@H](CCO)Nc1nc(N)nc2cnn(Cc3ccc(C(=O)N4CC5(COC5)C4)c4cccnc34)c12 [Compound 127, (3S)-3-({5-amino-1-[(5-{2-oxa-6-azaspiro[3.3]heptane-6-carbonyl}quinolin-8-yl)methyl]-1H-pyrazolo[4,3-d]pyrimidin-7-yl}amino)hexan-1-ol] | 54.8 | 91.9
7 | CCC[C@@H](CCO)Nc1nc(N)nc2cnn(Cc3ccc(C(=O)N4CC(O)C4)c4cccnc34)c12 [Compound 135, 1-{8-[(5-amino-7-{[(3S)-1-hydroxyhexan-3-yl]amino}-1H-pyrazolo[4,3-d]pyrimidin-1-yl)methyl]quinoline-5-carbonyl}azetidin-3-ol] | 126 | 80.1
8 | CCC[C@@H](CCO)Nc1nc(N)nc2cnn(Cc3ccc(C(=O)N4CCN(C)CC4)c4cccnc34)c12 [Compound 112, (3S)-3-[(5-amino-1-{[5-(4-methylpiperazine-1-carbonyl)quinolin-8-yl]methyl}-1H-pyrazolo[4,3-d]pyrimidin-7-yl)amino]hexan-1-ol] | 4.9 | 5.1

The remaining molecules from weak to strong by EC50 [1], led by results:

Row | EC50 [1] [nM] | EC50 [2] [nM] | Compound
9 | 447 | 266 | Nc1nc(NCC2CC3(CC3)C2)c2c(cnn2Cc2ccc(C(=O)N3CCNC(=O)C3)c3cccnc23)n1 [Compound 117, 4-[8-({5-amino-7-[({spiro[2.3]hexan-5-yl}methyl)amino]-1H-pyrazolo[4,3-d]pyrimidin-1-yl}methyl)quinoline-5-carbonyl]piperazin-2-one]
10 | 409 | 593 | CCC[C@@H](CCO)Nc1nc(N)nc2cnn(Cc3ccc(C(=O)NCCN)c4cccnc34)c12 [Compound 133, 8-[(5-amino-7-{[(3S)-1-hydroxyhexan-3-yl]amino}-1H-pyrazolo[4,3-d]pyrimidin-1-yl)methyl]-N-(2-aminoethyl)quinoline-5-carboxamide]
11 | 275 | 41.7 | Cc1cc(CNc2nc(N)nc3cnn(Cc4ccc(C(=O)N5CC6(CN(C)C6)C5)c5cccnc45)c23)no1 [Compound 138, N7-[(5-methyl-1,2-oxazol-3-yl)methyl]-1-[(5-{6-methyl-2,6-diazaspiro[3.3]heptane-2-carbonyl}quinolin-8-yl)methyl]-1H-pyrazolo[4,3-d]pyrimidine-5,7-diamine]
12 | 75.2 | 369 | CCC[C@@H](CCO)Nc1nc(N)nc2cnn(Cc3ccc(C(=O)NC4CCOCC4)c4cccnc34)c12 [Compound 114, 8-[(5-amino-7-{[(3S)-1-hydroxyhexan-3-yl]amino}-1H-pyrazolo[4,3-d]pyrimidin-1-yl)methyl]-N-(oxan-4-yl)quinoline-5-carboxamide]
13 | 66 | 57.7 | CCC[C@@H](CCO)Nc1nc(N)nc2cnn(Cc3ccc(C(=O)N4CCN(CCO)CC4)c4cccnc34)c12 [Compound 111, (3S)-3-{[5-amino-1-({5-[4-(2-hydroxyethyl)piperazine-1-carbonyl]quinolin-8-yl}methyl)-1H-pyrazolo[4,3-d]pyrimidin-7-yl]amino}hexan-1-ol]
14 | 60.9 | 20.4 | CCC[C@@H](CCO)Nc1nc(N)nc2cnn(Cc3ccc(C(=O)N4CCNCC4)c4cccnc34)c12 [Compound 137, (3S)-3-[(5-amino-1-{[5-(piperazine-1-carbonyl)quinolin-8-yl]methyl}-1H-pyrazolo[4,3-d]pyrimidin-7-yl)amino]hexan-1-ol]
15 | 33.7 | 83.3 | CCC[C@@H](CCO)Nc1nc(N)nc2cnn(Cc3ccc(C(=O)N4C[C@H]5CN(C)C[C@H]5C4)c4cccnc34)c12 [Compound 125, (3S)-3-{[1-([5-[(3aR,6aS)-5-methyl-octahydropyrrolo[3,4-c]pyrrole-2-carbonyl]quinolin-8-yl}methyl)-5-amino-1H-pyrazolo[4,3-d]pyrimidin-7-yl]amino}hexan-1-ol]
16 | 30.8 | 12.2 | CCC[C@@H](CCO)Nc1nc(N)nc2cnn(Cc3ccc(CN4CC(OC)C4)c4cccnc34)c12 [Compound 102, (3S)-3-{[5-amino-1-({5-[(3-methoxyazetidin-1-yl)methyl]quinolin-8-yl}methyl)-1H-pyrazolo[4,3-d]pyrimidin-7-yl]amino}hexan-1-ol]
